{
  "source": "patent US20020107197A1",
  "about": "“Ligands for G protein coupled receptors and methods of using them” (priority 2000, published 2002)",
  "format_in_all_cases": "cell-based",
  "key": {"[1]": {"biological_target": "T1, GPR4 (Homo sapiens, UniProt P46093)", "T1 construct": "were used to generate full length GPR4, which was digested with EcoRI and Xba I and cloned into the pBs3HA vector; expressed in transfected cells", "T1 sequence (P46093 whole entry)": "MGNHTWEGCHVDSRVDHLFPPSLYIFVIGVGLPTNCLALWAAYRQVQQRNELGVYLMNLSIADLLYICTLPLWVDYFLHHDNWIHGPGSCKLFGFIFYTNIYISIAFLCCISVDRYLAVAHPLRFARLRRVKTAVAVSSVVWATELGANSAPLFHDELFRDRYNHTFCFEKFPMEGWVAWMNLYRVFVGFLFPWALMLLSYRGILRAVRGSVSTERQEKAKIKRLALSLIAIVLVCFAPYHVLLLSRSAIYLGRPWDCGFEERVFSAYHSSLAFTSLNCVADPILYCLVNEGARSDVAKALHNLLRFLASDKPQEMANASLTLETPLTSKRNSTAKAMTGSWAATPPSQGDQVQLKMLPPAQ", "assay": "Single-cell intracellular calcium assay (fura-2) in GPR4-GFP-transfected MCF10A cells", "conditions": "PTX 100 ng/ml, 16 h pretreatment", "protocol": "Measurement of [Ca^2+]i, was performed as described previously in Xu et al. (2000) Nat Cell Biol 2, 261-267. Briefly, pGPR4-GFP-transfected MCF10A cells were grown in specialized glass-bottom dishes (Bioptech, Inc., Butler, Pa.) and loaded with fura-2 in HEPES buffered saline. Using a dual-wavelength spectrofluorometer (RFK-6002, Photon Technology Int'l, So. Brunswick, N.J.) coupled to an inverted fluorescence microscope (Olympus, IX-70, Lake Success, N.Y.), GFP-positive cells were identified using an excitation wavelength of 488 nm, a dichroic 505 nm long-pass filter and an emitter filter at bandpass of 535 nm (Chroma Technology, Brattleboro, Vt.). Measurements of [Ca^2+]i were performed on individual GPR4-GFP positive cells at excitation wavelengths of 340 and 380 nm and an emission wavelength of 510 nm. Conversion of the 340/380 ratio value into [Ca^2+]i in nM was estimated by comparing the cellular fluorescence ratio with ratios acquired using fura-2 (free acid) in buffers containing known Ca^2+ concentrations. [Ca^2+]i was then calculated as described by Grynkiewicz et al. (1985) J Biol Chem 260, 3440-3450. All calcium assays were performed in the presence of 1 mM EGTA in the assay buffers. Therefore, intracellular calcium release, not calcium influx, was analyzed.\nTo test whether GPR4 is a receptor for SPC, MCF10A cells were transiently transfected with pGPR4-GFP.\nThe GFP receptor fusion was used to identify positively transfected cells, and single-cell calcium assays were performed as described in our previous studies, such as Xu et al. (2000) Nat Cell Biol 2, 261-267."}, "[2]": {"biological_target": "T1, GPR4", "assay": "SRE luciferase reporter in GPR4-transfected HEK293 cells", "conditions": "PTX 100 ng/ml 16 h; C3-exoenzyme co-transfected", "protocol": "The serum-response element (SRE) reporter system is a sensitive assay for receptors of lipid factors (An et al. (1998) J Biol Chem 273, 7906-7910; An et al. (1999) Mol Pharmacol 55, 787-794). The SRE reporter system used herein (pSRE-Luc) was a gift from Dr. Songzhu An (UCSF), or may be purchased from Stratagene (La Jolla, Calif.). Both systems give identical results. HEK293 and HEK293GPR4 cells were cultured in RPMI1640 with 10% FBS in 10 cm dishes to ˜85% confluence. To the cells in each dish, pSRE-Luc (10 μg) was transfected in the presence of 60 μl LipofectAMINE reagent. Cells were seeded in 96-well plates 16 h after transfection, incubated for another 24 h in RPMI1640 with 10% FBS, and starved in serum-free medium for 16 h. SPC (dissolved in PBS to 10 mM) and other lipids (LPCs were dissolved in 70% ethanol. Other lipids were dissolved in PBS, 70-95% ethanol, or 100% MeOH) were diluted in serum free RPMI 1640 and added to the cells, followed by a 10 h incubation. Luciferase activity was measured in Microlite™ 1 plates (DYNEX Technologies, Inc., Virginia) using 60 μl of cell lysate and 20 μl luciferase substrate. PTX (100 ng/ml) was added during the 16 h serum starvation period and pcDNA1-C3 (encoding the C3-exoenzyme, 2 μg) was co-transfected with pSRE-Luc (10 μg). All experiments were performed in quadruplicate and were repeated at least three times. The Student's t test was performed using the GraphPad Instat software (San Diego, Calif.). p<0.05 was considered to be statistically significant."}, "[3]": {"biological_target": "T1, GPR4", "assay": "ERK MAP kinase activation (phospho-ERK Western blot) in GPR4-infected Swiss 3T3 cells", "conditions": "PTX 100 ng/ml 12-16 h", "protocol": "MAP kinases are key signaling intermediates of DNA synthesis and cell proliferation. Swiss 3T3 cells were infected with MSCV GPR4-ires-GFP or MSCV ires-GFP, and subsequently cells sorted by FACS for positive expression of GFP as described previously (Kabarowski et al. (2000) Proc Natl Acad Sci USA. 97, 12109-12114). Cells were plated in 6-well plates in DMEM containing 5% FBS, serum-starved overnight, and then treated lipids in DMEM for the indicated times. Cells were lysed on ice in RIPA buffer containing 50 mM Tris-HCl, pH 7.5, 1% Nonidet P-40, 0.5% deoxycholate,0.1% SDS, 150 mM NaCl, 2 mM EGTA, 25 mM sodium fluoride, 1 mM sodium orthovanadate, and 1× protease inhibitors (Sigma P8340). Lysates containing equal amounts of protein were separated on 10% SDS-polyacrylamide gels and transferred onto nitrocellulose membranes. Antibodies against phosphorylated ERK1/2 (Cell Signaling Technologies; Beverly, Mass.) were used to probe the membrane and the ECL system (Amersham) was used for detection. To normalize the amounts of protein loaded in each lane, membranes were stripped and re-probed with antibodies against total ERK (Cell Signaling Technologies). In some experiments, cells were pretreated with 100 ng/ml PTX for 12-16 h prior to SPC and LPC stimulation."}, "[4]": {"biological_target": "T2, OGR1 (Homo sapiens, UniProt Q15743)", "T2 construct": "expressed in transfected cells", "T2 sequence (Q15743 whole entry, species assumed)": "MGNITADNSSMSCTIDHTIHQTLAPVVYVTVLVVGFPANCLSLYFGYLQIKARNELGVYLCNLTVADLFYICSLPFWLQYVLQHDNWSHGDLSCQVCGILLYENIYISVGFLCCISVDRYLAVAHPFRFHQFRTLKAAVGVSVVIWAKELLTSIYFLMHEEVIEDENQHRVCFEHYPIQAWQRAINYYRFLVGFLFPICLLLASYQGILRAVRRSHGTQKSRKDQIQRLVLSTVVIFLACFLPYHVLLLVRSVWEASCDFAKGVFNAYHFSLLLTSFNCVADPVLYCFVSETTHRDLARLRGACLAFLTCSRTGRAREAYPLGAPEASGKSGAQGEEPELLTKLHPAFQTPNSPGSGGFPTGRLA", "assay": "ERK activation in OGR1-infected Swiss 3T3 cells"}, "[5]": {"biological_target": "T1, GPR4", "assay": "DNA synthesis ([3H]thymidine incorporation) in GPR4-infected Swiss 3T3 cells", "conditions": "PTX 100 ng/ml for 16 h; GFP- and GPR4-GFP expressing cells", "protocol": "The effect of SPC and LPC on DNA synthesis was measured using [^3H] thymidine incorporation. Briefly, GPR4-ires-GFP- and GFP-Swiss 3T3 cells were plated in 96-well plates, serum-starved for 24 h, and treated with SPC, LPC, or other lipids in serum-free DMEM for 24 h. Cells were incubated with 0.75 μCi/ml [^3H]thymidine in serum-free DMEM for the last 18 h. Cells were harvested onto filter papers presoaked in 1% polyethylenimine using the automated cell harvester HARVEST 96. Incorporated [^3H]thymidine was counted in a 1450 Microbeta Trilux Liquid Scintillation and Luminescence Counter (Perkin-Elmer-Wallac, Inc.)."}},
  "data": [
    {"substance": "pertussis toxin [PTX]", "values": [
      {"measurement": "effect of PTX on [Ca2+]i response to SPC and LPC", "setting": "[1]", "result": "completely abolished"},
      {"measurement": "inhibition of SRE-reporter activation by SPC and 16:0-LPC", "setting": "[2]", "result": "partially inhibited SRE-reporter activation"},
      {"measurement": "PTX sensitivity of SPC-induced ERK activation", "setting": "[3]", "result": "sensitive to PTX"},
      {"measurement": "PTX sensitivity of SPC-induced ERK activation", "setting": "[4]", "result": "PTX-insensitive"},
      {"measurement": "effect of PTX on DNA synthesis stimulated by SPC", "setting": "[5]", "result": "inhibited by PTX"}
    ]}
  ]
}
